Here are results for 33 compounds from patent US11000535B2, “Anticancer composition and use thereof” (KAOHSIUNG MEDICAL UNIVERSITY, priority 2015, dated 2021).

Where two headings read alike, the source gives them in different places. Residues, ends and D or L forms follow the SMILES beside them. *: point of attachment. Cbz = O=C(OCc1ccccc1)*; CH2F = FC*

The test system of assay [1] is human glycine N-methyltransferase promoter. As to the kind of experiment: GNMT promoter-driven luciferase reporter assay in H7GPL cells. The class given is cell-based. Particulars: for fold induction at 10 µM: Homo sapiens, H7GPL, read-out: Fold change (10 uM). The procedure: Please refer to FIG. 1, which illustrates the configuration of pLV-GNMTpLuc plasmid. HEK293T cells were cotransfected with a packaging plasmid-pCMV-ΔR8.91, a VSV-G envelope expressing plasmid-pMD.G and pLV-GNMTpLuc using TurboFect™ Reagent (Fermentas, Hanover, Md.). One resultant colony was picked, amplified and denominated as H7GPL (HuH-7-GNMT promoter-Luciferase). The relative luciferase activity (RLA) was calculated as “activity of luciferase/intensity of alamarBlue fluorescence”. The fold changes in GNMT promoter induction was calculated as “RLA of drug/RLA of solvent control”. Compounds with the ability to activate human glycine N-methyltransferase promoter in H7GPL could serve as a citeria for screening drugs.
Please refer to FIG. 2, which illustrates the luciferase activity in a screening platform. Previously, 26 FDA approved drugs were identified that can reverse the gene expression signature of HCC. We obtained 26 drugs. H7GPL cells were seeded in 96-well plates for 18 hours and then were treated with these 26 drugs and solvent control for an extra 24 hours.
In the initial screening, when (individual luciferase activity−average luciferase activity of all hits)/standardized Z scores of all samples is greater than 1.5, it means the compound has the capability of enhancing the GNMT reporter activity.
Huh7 cells were infected with this virus and selected with puromycin-containing medium. One resultant colony was picked, amplified and denominated as H7GPL (Huh7 GNMT promoter-luciferase). The cell lysate of H7GPL was used for luciferase activity measurement using the Luciferase Assay System (Promega).
For primary screening, H7GPL cells seeded in 96-well plates were treated for 24 h with individual drugs at a concentration of 2 mg/mL for crude extracts and 0.2 mg/mL for pure compounds and then were lysed for the luciferase activity assay using the Luciferase Assay System (Promega, Madison, Wis., USA).
Reporter activity for each well was transformed to the Z score by using data from all assay plates.
Then, hits of primary screening were sorted by Z score ≥1.5 and used for secondary screening.
And then placed in the above-described culture plate H7GPL cell replication, and after the disposal of seized goods in those 20 hours, the company added AbD serotec Reagent (Oxford, UK), further cultured for 4 hours.
The cytotoxicity was measured according to the manufacturer's recommendation for assessing the reporter gene.
Drugs that induced GNMT promoter activity ≥1.5-fold were considered as hits of the secondary screen with the capability of enhancing the activity of GNMT.

In the next assay the test system is c-Myc protein. As to the kind of experiment: Protein degradation inhibitors on PGG-induced c-Myc degradation. The class given is cell-based, human. The following applies: co-treatment with PGG, Huh7 cells, FIG. 45.
Setting [2] is: GNMT promoter induction, RLA of drug/RLA of solvent control, 10 uM, 24 hours.

For the compound `O=c1cc(-c2ccc(O)cc2)oc2cc(O)cc(O)c12` [Apigenin], the “GNMT promoter activity (in words)” value in assay [1] (H7GPL luciferase) was “remarkably induced GNMT promoter activity”. In addition, the fold induction at 10 µM in assay [1] (setting [2]) was 1.8.
Consider `CC(C)COCC(CN(Cc1ccccc1)c1ccccc1)N1CCCC1` (centres unmarked) [Bepridil], for which the fold induction at 10 µM in assay [1] (setting [2]) came to 0.7.
Still for that read-out and setting: for `CC[C@@]1(O)C(=O)OCc2c1cc1n(c2=O)Cc2cc3ccccc3nc2-1` [Camptothecin] the value was 0.4.
Still for that read-out and setting: under `CN(C)CCCN1c2ccccc2Sc2ccc(Cl)cc21` [Chlorpromazine] stands 0.7.
In the case of `Cc1cc(C2CCCCC2)n(O)c(=O)c1` [Ciclopirox], the “GNMT promoter activity (in words)” value in assay [1] (H7GPL luciferase) was “remarkably induced GNMT promoter activity”. The fold induction at 10 µM in assay [1] (setting [2]) turned out to be 8.2.
Turning to `Clc1ccc(C(OCCN2CCCCC2)c2ccccc2)cc1` (centres unmarked) [Cloperastine], the fold induction at 10 µM in assay [1] (24 h) worked out at 1.
With `COc1ccccc1N1CCN(CCCCNC(=O)c2ccc3ccccc3c2)CC1.Cl.Cl` [DO 897/99], the “Fold change (10 uM)” value in assay [1] (setting [2]) was 0.9.
On to `OCCN(CCO)c1nc(N2CCCCC2)c2nc(N(CCO)CCO)nc(N3CCCCC3)c2n1` [Dipyridamole], for which, in assay [1] (setting [2]), the fold induction at 10 µM was 0.9.
Turning to `O=C(O)CN(CCN(CC(=O)O)CC(=O)O)CC(=O)O` [EDTA, ethylenediamine-tetraacetic acid], in the assay on c-Myc protein, the “prevention of PGG-induced c-Myc degradation / inhibition of c-Myc protein expression” value is listed as “can not prevent”.
Take `O=C1Nc2ccc3ncsc3c2/C1=C/Nc1ccc(S(=O)(=O)Nc2ccccn2)cc1` [GW-8510]: the “Fold change (10 uM)” value in assay [1] (setting [2]) was 0.4.
On to `O=c1cc(-c2ccc(O)c(O)c2)oc2cc(O)cc(O)c12` [Luteolin], for which, in assay [1] (H7GPL luciferase), the “GNMT promoter activity (in words)” value is on record as “remarkably induced GNMT promoter activity”. Besides, in assay [1] (setting [2]), the fold induction at 10 µM was 1.9.
Regarding `CC(C)C[C@@H](C=O)NC(=O)[C@H](CC(C)C)NC(=O)[C@H](CC(C)C)NC(=O)OCc1ccccc1` [MG132, Z-LEU-LEU-LEU-CHO] (Cbz-Leu-Leu-Leu-aldehyde), the “prevention of PGG-induced c-Myc degradation / inhibition of c-Myc protein expression” value in the assay on c-Myc protein is reported as “can not prevent”.
In the case of `COC(=O)Nc1nc2ccc(C(=O)c3ccccc3)cc2[nH]1` [Mebendazole], the fold induction at 10 µM in assay [1] (setting [2]) was found to be 1.
Still for that read-out and setting: under `OC(c1cc(C(F)(F)F)nc2c(C(F)(F)F)cccc12)C1CCCCN1` (centres unmarked) [Mefloquine] stands 0.3.
Turning to `Cl.N` [NH4Cl], the “prevention of PGG-induced c-Myc degradation / inhibition of c-Myc protein expression” value in the assay on c-Myc protein is reported as “can not prevent”.
As to `CC(COc1ccccc1)N(CCCl)Cc1ccccc1` (centres unmarked) [Phenoxybenzamine], in assay [1] (24 h), the fold induction at 10 µM amounted to 0.7.
As to `CN1CCN(CCCN2c3ccccc3Sc3ccc(Cl)cc32)CC1` [Prochlorperazine], the fold induction at 10 µM in assay [1] (setting [2]) was found to be 0.7.
On the same count and under the same terms, under `Cc1cc(/C=C/c2ccc3cc(N(C)C)ccc3[n+]2C)c(C)n1-c1ccccc1` [Pyrvinium] stands 0.5.
With `C[n+]1cc2c3c(ccc2c2ccc4cc5c(cc4c21)OCO5)OCO3` [Sanguinarine], the fold induction at 10 µM in assay [1] (24 h) is 0.1.
With `Clc1ccc(CSC(Cn2ccnc2)c2ccc(Cl)cc2Cl)cc1` (centres unmarked) [Sulconazole], the fold induction at 10 µM in assay [1] (setting [2]) was 0.5.
On the same count and under the same terms, under `C=CCNC1=C2C[C@@H](C)C[C@H](OC)[C@H](O)[C@@H](C)/C=C(\C)[C@H](OC(N)=O)[C@@H](OC)/C=C\C=C(/C)C(=O)NC(=CC1=O)C2=O` [Tanespimycin] stands 0.5; under `CSc1ccc2c(c1)N(CCC1CCCCN1C)c1ccccc1S2` (centres unmarked) [Thioridazine], 0.1.
The same measure, in the same setting: under `CN1CCN(CCCN2c3ccccc3Sc3ccc(C(F)(F)F)cc32)CC1` [Trifluoperazine] stands 0.1.
As to `Cc1cc2cc3c(C)cc(=O)oc3c(C)c2o1` [Trioxysalen], the fold induction at 10 µM in assay [1] (24 h) was found to be 1.2.
With `COC(=O)C[C@H](NC(=O)[C@H](C)NC(=O)[C@@H](NC(=O)OCc1ccccc1)C(C)C)C(=O)CF` [Z-VAD-FMK, N-Benzyloxycarbonyl-Val-Ala-Asp (Ome)fluoromethyl ketone] (Cbz-Val-Ala-Asp(OMe)-CH2F), the “prevention of PGG-induced c-Myc degradation / inhibition of c-Myc protein expression” value in the assay with c-Myc protein is given as “can prevent”.
Same read-out and setting: for `CCCC[C@@H](C=O)NC(=O)[C@H](CC(C)C)NC(=O)OCc1ccccc1` [calpeptin, N-Benzyloxy-carbonyl-L-leucyl-L-norleucinal] the value was “can not prevent”.
Still for that read-out and setting: under `CCN(CC)CCCC(C)Nc1ccnc2cc(Cl)ccc12` (centres unmarked) [chloroquine diphosphate] stands “can not prevent”.
For `Oc1c(I)cc(Cl)c2cccnc12` [clioquinol(quinoinol), clioquinol], in assay [1] (H7GPL luciferase), the “GNMT promoter activity (in words)” value was “remarkably induced GNMT promoter activity”. Further, the fold induction at 10 µM in assay [1] (setting [2]) was 3.8.
Regarding `O=C(O)c1cc(O)c(O)c(O)c1` [gallic acid], the “GNMT promoter activity (in words)” value in assay [1] (H7GPL luciferase) is “none of which can either affect the activity of GNMT promoter”.
Take `O=C(CCCCCCC(=O)Nc1ccccc1)NO` [suberoylanilide hydroxamic acid]: in assay [1] (H7GPL luciferase), the “GNMT promoter activity (in words)” value is listed as “remarkably induced GNMT promoter activity” and the “dose dependence of GNMT promoter activity” value is “dose-dependently”. Moreover, the “GNMT promoter activity (in words)” value in assay [1] (H7GPL luciferase, listed as SAHA) was “potent GNMT inducer”. In assay [1] (24 h), the fold induction at 10 µM was found to be 18.6.
Turning to `CC(/C=C/C(=O)NO)=C\[C@@H](C)C(=O)c1ccc(N(C)C)cc1` [trichostatin A], the “Fold change (0.2 uM)” value in assay [1] (GNMT promoter induction, 0.2 uM, 24 hours) was found to be 3.4 with Fold. Moreover, the “GNMT promoter activity (in words)” value in assay [1] (H7GPL luciferase) is “remarkably induced GNMT promoter activity”.
Regarding `CC1=C(CO)C(=O)O[C@@H]([C@@H](C)[C@H]2CC[C@H]3[C@@H]4C[C@H]5O[C@]56[C@@H](O)C=CC(=O)[C@]6(C)[C@H]4CC[C@]23C)C1` [withaferin A], the “Fold change (10 uM)” value in assay [1] (setting [2]) is given as 0.
For Tyloxapol, the “Fold change (10 uM)” value in assay [1] (setting [2]) stood at 0.6.
